Assays:
Assay in all cases: Test B pre-/postemergence plant response
Format in all cases: in vivo
[1] = test system: Russian thistle (Salsola iberica); details: Preemergence
Summary of the method: (§1)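 Seeds were sown and sprayed preemergence, while plants at 2 to 18 cm (1- to 4-leaf stage) got postemergence sprays. Compounds were formulated in a non-phytotoxic solvent mixture with surfactant. After 13 to 15 days in a greenhouse, injury was rated visually against untreated controls, 0 (no effect) to 100 (complete control).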

[2] = test system: blackgrass (Alopecurus myosuroides); details: for Blackgrass plant response rating: 8 g ai/ha
Summary of the method: as §1

[3] = test system: cocklebur (Xanthium strumarium); details: for Cocklebur plant response rating: 8 g ai/ha
Summary of the method: as §1

[4] = test system: common (oilseed) sunflower (Helianthus annuus); details: Preemergence
Summary of the method: as §1

[5] = test system: common ragweed (Ambrosia elation)
Summary of the method: as §1

[6] = test system: corn (Zea mays)
Summary of the method: as §1

[7] = test system: downy bromegrass (Bromus tectorum); details: for Bromegrass, Downy plant response rating: 8 g ai/ha
Summary of the method: as §1

[8] = test system: eastern black (E.B.) nightshade (Solanum ptycanthum); details: Preemergence
Summary of the method: as §1

[9] = test system: green foxtail (Setaria viridis)
Summary of the method: as §1

[10] = test system: surinam grass (Brachiaria decumbens)
Summary of the method: as §1

[11] = test system: wheat (Triticum aestivum)
Summary of the method: as §1

[12] = test system: wild oat (Avena fatua)
Summary of the method: as §1

[13] = test system: woolly cupgrass (Eriochloa villosa)
Summary of the method: as §1

[14] = test system: yellow nutsedge (Cyperus esculentus)
Summary of the method: as §1

[15] = 31 g ai/ha, scale 0 to 100 (0 no effect, 100 complete control)
[16] = Postemergence, 16 g ai/ha, scale 0 to 100
[17] = Postemergence, 31 g ai/ha, scale 0 to 100
[18] = Postemergence, 62 g ai/ha, scale 0 to 100, 0 no effect, 100 complete control
[19] = Preemergence, 16 g ai/ha, scale 0 to 100 (0 no effect, 100 complete control)
[20] = Preemergence, 31 g ai/ha, 0 to 100 scale, 0 no effect, 100 complete control
[21] = Preemergence, 62 g ai/ha, scale 0 to 100
[22] = 8 g ai/ha, postemergence, 0-100 scale
[23] = Preemergence, 31 g ai/ha, scale 0 to 100 (0 no effect, 100 complete control)
[24] = Preemergence, 8 g ai/ha, scale 0 to 100
[25] = Preemergence, 16 g ai/ha, scale 0 to 100
[26] = Preemergence, 62 g ai/ha, 0 to 100 scale, 0 no effect, 100 complete control

Cc1cc(-c2ccc(Cl)cc2)nn1-c1c(OC(=O)Oc2ccccc2)cnn(C)c1=O [Compound 54]
Plant response rating, Russian Thistle [1, 15]: 0 | Plant response rating, Russian Thistle ([1]; 62 g ai/ha, scale 0 to 100): 0 | Russian Thistle plant response rating ([1]; 8 g ai/ha, scale 0 to 100): 0 | Russian Thistle plant response rating ([1]; 16 g ai/ha, scale 0 to 100): 0 | Blackgrass plant response rating ([2]; postemergence, 0-100 scale): 45 | Plant response rating, Blackgrass [2, 16]: 45 | Plant response rating, Blackgrass [2, 17]: 70 | Plant response rating, Blackgrass [2, 18]: 70 | Plant response rating, Blackgrass [2, 19]: 90 | Plant response rating, Blackgrass [2, 20]: 90 | Plant response rating, Blackgrass [2, 21]: 90 | Blackgrass plant response rating ([2]; Preemergence, scale 0 to 100): 60 | Cocklebur plant response rating ([3]; postemergence, 0-100 scale): 0 | Plant response rating, Cocklebur [3, 16]: 0 | Plant response rating, Cocklebur [3, 17]: 0 | Plant response rating, Cocklebur [3, 18]: 0 | Plant response rating, Cocklebur [3, 19]: 0 | Plant response rating, Cocklebur [3, 20]: 0 | Plant response rating, Cocklebur [3, 21]: 0 | Cocklebur plant response rating ([3]; Preemergence, scale 0 to 100): 0 | Plant response rating, Sunflower [4, 15]: 0 | Plant response rating, Sunflower ([4]; 62 g ai/ha, scale 0 to 100): 0 | Sunflower plant response rating ([4]; 8 g ai/ha, scale 0 to 100): 0 | Sunflower plant response rating ([4]; 16 g ai/ha, scale 0 to 100): 0 | Ragweed plant response rating [5, 22]: 0 | Plant response rating, Ragweed [5, 16]: 0 | Plant response rating, Ragweed [5, 17]: 0 | Plant response rating, Ragweed [5, 18]: 0 | Plant response rating, Ragweed [5, 23]: 0 | Plant response rating, Ragweed [5, 21]: 0 | Ragweed plant response rating [5, 24]: 0 | Ragweed plant response rating [5, 25]: 0 | Corn plant response rating [6, 22]: 0 | Plant response rating, Corn [6, 16]: 0 | Plant response rating, Corn [6, 17]: 25 | Plant response rating, Corn [6, 18]: 100 | Plant response rating, Corn [6, 20]: 65 | Plant response rating, Corn [6, 21]: 85 | Corn plant response rating [6, 24]: 0 | Corn plant response rating [6, 25]: 0 | Bromegrass, Downy plant response rating ([7]; postemergence, 0-100 scale): 5 | Plant response rating, Bromegrass, Downy [7, 16]: 50 | Plant response rating, Bromegrass, Downy [7, 17]: 50 | Plant response rating, Bromegrass, Downy [7, 18]: 70 | Plant response rating, Bromegrass, Downy [7, 19]: 0 | Plant response rating, Bromegrass, Downy [7, 20]: 70 | Plant response rating, Bromegrass, Downy [7, 21]: 85 | Bromegrass, Downy plant response rating ([7]; Preemergence, scale 0 to 100): 0 | Plant response rating, Nightshade, E. B. [8, 15]: 0 | Plant response rating, Nightshade, E. B. ([8]; 62 g ai/ha, scale 0 to 100): 0 | Nightshade, E. B. plant response rating ([8]; 8 g ai/ha, scale 0 to 100): 0 | Nightshade, E. B. plant response rating ([8]; 16 g ai/ha, scale 0 to 100): 0 | Foxtail, Green plant response rating [9, 22]: 70 | Plant response rating, Foxtail, Green [9, 16]: 95 | Plant response rating, Foxtail, Green [9, 17]: 95 | Plant response rating, Foxtail, Green [9, 18]: 100 | Plant response rating, Foxtail, Green [9, 20]: 100 | Plant response rating, Foxtail, Green [9, 21]: 100 | Foxtail, Green plant response rating [9, 24]: 55 | Foxtail, Green plant response rating [9, 25]: 95 | Surinam Grass plant response rating [10, 22]: 50 | Plant response rating, Surinam Grass [10, 16]: 95 | Plant response rating, Surinam Grass [10, 17]: 98 | Plant response rating, Surinam Grass [10, 18]: 100 | Plant response rating, Surinam Grass [10, 23]: 55 | Plant response rating, Surinam Grass [10, 26]: 85 | Surinam Grass plant response rating [10, 24]: 0 | Surinam Grass plant response rating [10, 25]: 0 | Wheat plant response rating [11, 22]: 0 | Plant response rating, Wheat [11, 16]: 30 | Plant response rating, Wheat [11, 17]: 60 | Plant response rating, Wheat [11, 18]: 60 | Plant response rating, Wheat [11, 23]: 10 | Plant response rating, Wheat [11, 26]: 50 | Wheat plant response rating [11, 25]: 0 | Oat, Wild plant response rating [12, 22]: 85 | Plant response rating, Oat, Wild [12, 16]: 90 | Plant response rating, Oat, Wild [12, 17]: 98 | Plant response rating, Oat, Wild [12, 18]: 98 | Plant response rating, Oat, Wild [12, 23]: 75 | Plant response rating, Oat, Wild [12, 21]: 95 | Oat, Wild plant response rating [12, 24]: 40 | Oat, Wild plant response rating [12, 25]: 70 | Cupgrass, Woolly plant response rating [13, 22]: 80 | Plant response rating, Cupgrass, Woolly [13, 16]: 90 | Plant response rating, Cupgrass, Woolly [13, 17]: 98 | Plant response rating, Cupgrass, Woolly [13, 18]: 100 | Plant response rating, Cupgrass, Woolly [13, 20]: 0 | Plant response rating, Cupgrass, Woolly [13, 21]: 0 | Cupgrass, Woolly plant response rating [13, 24]: 0 | Cupgrass, Woolly plant response rating [13, 25]: 0 | Nutsedge, Yellow plant response rating [14, 22]: 0 | Plant response rating, Nutsedge, Yellow [14, 16]: 0 | Plant response rating, Nutsedge, Yellow [14, 17]: 0 | Plant response rating, Nutsedge, Yellow [14, 18]: 0 | Plant response rating, Nutsedge, Yellow [14, 23]: 0 | Plant response rating, Nutsedge, Yellow [14, 21]: 0 | Nutsedge, Yellow plant response rating [14, 24]: 0 | Nutsedge, Yellow plant response rating [14, 25]: 0

Cc1cc(-c2ccc(Cl)cc2)nn1-c1c(OS(=O)(=O)c2ccc(Cl)s2)cnn(C)c1=O [Compound 55]
Plant response rating, Russian Thistle [1, 15]: 0 | Plant response rating, Russian Thistle ([1]; 62 g ai/ha, scale 0 to 100): 0 | Russian Thistle plant response rating ([1]; 8 g ai/ha, scale 0 to 100): 0 | Russian Thistle plant response rating ([1]; 16 g ai/ha, scale 0 to 100): 0 | Plant response rating, Blackgrass [2, 19]: 80 | Plant response rating, Blackgrass [2, 20]: 100 | Plant response rating, Blackgrass [2, 21]: 100 | Blackgrass plant response rating ([2]; Preemergence, scale 0 to 100): 0 | Plant response rating, Cocklebur [3, 20]: 0 | Plant response rating, Cocklebur [3, 21]: 0 | Cocklebur plant response rating ([3]; Preemergence, scale 0 to 100): 0 | Plant response rating, Sunflower [4, 15]: 0 | Plant response rating, Sunflower ([4]; 62 g ai/ha, scale 0 to 100): 0 | Sunflower plant response rating ([4]; 8 g ai/ha, scale 0 to 100): 0 | Sunflower plant response rating ([4]; 16 g ai/ha, scale 0 to 100): 0 | Plant response rating, Ragweed [5, 23]: 0 | Plant response rating, Ragweed [5, 21]: 0 | Ragweed plant response rating [5, 24]: 0 | Ragweed plant response rating [5, 25]: 0 | Plant response rating, Corn [6, 20]: 80 | Plant response rating, Corn [6, 21]: 95 | Corn plant response rating [6, 24]: 0 | Corn plant response rating [6, 25]: 0 | Plant response rating, Bromegrass, Downy [7, 19]: 0 | Plant response rating, Bromegrass, Downy [7, 20]: 30 | Plant response rating, Bromegrass, Downy [7, 21]: 60 | Bromegrass, Downy plant response rating ([7]; Preemergence, scale 0 to 100): 0 | Plant response rating, Nightshade, E. B. [8, 15]: 80 | Plant response rating, Nightshade, E. B. ([8]; 62 g ai/ha, scale 0 to 100): 100 | Nightshade, E. B. plant response rating ([8]; 8 g ai/ha, scale 0 to 100): 0 | Nightshade, E. B. plant response rating ([8]; 16 g ai/ha, scale 0 to 100): 0 | Plant response rating, Foxtail, Green [9, 20]: 100 | Plant response rating, Foxtail, Green [9, 21]: 100 | Foxtail, Green plant response rating [9, 24]: 0 | Foxtail, Green plant response rating [9, 25]: 90 | Plant response rating, Surinam Grass [10, 23]: 100 | Plant response rating, Surinam Grass [10, 26]: 100 | Surinam Grass plant response rating [10, 24]: 15 | Surinam Grass plant response rating [10, 25]: 50 | Plant response rating, Wheat [11, 23]: 0 | Plant response rating, Wheat [11, 26]: 5 | Wheat plant response rating [11, 25]: 0 | Plant response rating, Oat, Wild [12, 23]: 35 | Plant response rating, Oat, Wild [12, 21]: 70 | Oat, Wild plant response rating [12, 24]: 0 | Oat, Wild plant response rating [12, 25]: 0 | Plant response rating, Cupgrass, Woolly [13, 20]: 100 | Plant response rating, Cupgrass, Woolly [13, 21]: 100 | Cupgrass, Woolly plant response rating [13, 24]: 15 | Cupgrass, Woolly plant response rating [13, 25]: 80 | Plant response rating, Nutsedge, Yellow [14, 23]: 0 | Plant response rating, Nutsedge, Yellow [14, 21]: 0 | Nutsedge, Yellow plant response rating [14, 24]: 0 | Nutsedge, Yellow plant response rating [14, 25]: 0
